# Assay results published in ChEMBL document CHEMBL6096668, “Design and functional studies of xylene-based cyclic mimetics of SOCS1 protein” (Eur J Med Chem, 2025).
# Numbered stars: 1 amine (or outer) side, 2 acyl side, 3 side chain; on linkers, the order of the positions; unused ones are H or OH. Bridge positions count the residues as written; N and C are the ends. Square brackets hold non-standard residues; d marks the D form. Peptide text beside a SMILES is read from it. * marks the point of attachment. 1Nal = N[C@@H](Cc1cccc2ccccc12)C(=O)O; TBMB = c1c(C[*:1])cc(C[*:3])cc1C[*:2]; Acm = CC(=O)NC*
# Tests used:
# [1] = biological target: T1, Tyrosine-protein kinase JAK2 (Homo sapiens, UniProt O60674); test: Binding affinity to his-tagged JAK2 (826 to 1132 residues) (unknown origin) assessed as dissociation constant incubated for 30 mins by MST analysis
# T1 sequence (O60674 whole entry, the tested form may be a part): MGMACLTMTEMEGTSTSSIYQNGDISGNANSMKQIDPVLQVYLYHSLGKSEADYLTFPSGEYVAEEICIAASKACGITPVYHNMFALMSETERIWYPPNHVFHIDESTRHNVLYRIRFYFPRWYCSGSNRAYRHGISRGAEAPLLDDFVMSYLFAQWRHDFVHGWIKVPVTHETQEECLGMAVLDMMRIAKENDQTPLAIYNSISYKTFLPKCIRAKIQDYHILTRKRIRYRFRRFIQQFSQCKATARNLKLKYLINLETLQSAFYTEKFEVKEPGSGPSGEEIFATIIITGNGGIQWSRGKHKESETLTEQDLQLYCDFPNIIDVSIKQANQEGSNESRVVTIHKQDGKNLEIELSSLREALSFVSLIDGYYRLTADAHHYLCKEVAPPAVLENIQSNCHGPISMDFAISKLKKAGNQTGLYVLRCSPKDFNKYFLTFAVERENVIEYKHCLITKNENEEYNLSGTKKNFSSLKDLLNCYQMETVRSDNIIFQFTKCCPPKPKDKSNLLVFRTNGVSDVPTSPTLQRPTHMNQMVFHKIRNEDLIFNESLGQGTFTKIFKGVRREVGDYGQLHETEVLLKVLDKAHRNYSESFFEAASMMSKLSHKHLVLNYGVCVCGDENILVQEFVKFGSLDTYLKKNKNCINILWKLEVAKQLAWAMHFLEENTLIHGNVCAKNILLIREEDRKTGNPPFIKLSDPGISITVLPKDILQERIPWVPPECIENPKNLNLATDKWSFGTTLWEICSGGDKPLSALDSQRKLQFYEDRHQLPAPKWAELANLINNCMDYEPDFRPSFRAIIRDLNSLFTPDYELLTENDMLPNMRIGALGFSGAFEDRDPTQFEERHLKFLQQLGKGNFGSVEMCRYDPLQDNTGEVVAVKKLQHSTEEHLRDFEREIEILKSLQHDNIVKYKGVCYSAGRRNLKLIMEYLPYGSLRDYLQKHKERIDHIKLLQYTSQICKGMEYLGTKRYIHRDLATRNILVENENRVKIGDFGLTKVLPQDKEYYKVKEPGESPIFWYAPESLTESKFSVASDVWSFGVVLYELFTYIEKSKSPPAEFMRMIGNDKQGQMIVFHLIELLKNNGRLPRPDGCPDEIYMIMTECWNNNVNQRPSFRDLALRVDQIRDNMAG
# [2] = biological target: T1, Tyrosine-protein kinase JAK2; test: Inhibition of JAK2 (unknown origin) using srctide as substrate preincubated with compound for 1 hr followed by substrate addition and measured after 15 mins in presence of ATP by LC-MS analysis
# [3] = Stability of the compound in fetal bovine serum measured after 30 h by RP-HPLC analysis; conditions: cattle
SMILES,Kd [1] [µM],IC50 [2] [µM],Stability [3]
CC(=O)NCSC[C@@H]1NC(=O)[C@H]([C@@H](C)O)NC(=O)[C@H](NC(C)=O)CSCc2cccc(c2)CSC[C@@H](C(=O)N[C@@H](Cc2cnc[nH]2)C(N)=O)NC(=O)[C@H](CCCNC(=N)N)NC(=O)[C@H](Cc2cccc3ccccc23)NC(=O)[C@H]([C@@H](C)O)NC(=O)[C@H](CCC(N)=O)NC(=O)[C@H](CCCNC(=N)N)NC1=O,6.8,2.2,–
CC(=O)NCSC[C@@H]1NC(=O)[C@H]([C@@H](C)O)NC(=O)[C@@H](NC(C)=O)CSCc2cc3cc(c2)CSC[C@H](NC(=O)[C@H](CCCNC(=N)N)NC1=O)C(=O)N[C@@H]([C@@H](C)O)C(=O)N[C@@H](Cc1cccc2ccccc12)C(=O)N[C@@H](CCCNC(=N)N)C(=O)N[C@H](C(=O)N[C@@H](Cc1cnc[nH]1)C(N)=O)CSC3 (Ac-CTC(Acm)RCT[1Nal]RCH-NH2; linker 1-5-9 via TBMB),130,100,–
CC(=O)NCSC[C@@H]1NC(=O)[C@H]([C@@H](C)O)NC(=O)[C@@H](NC(C)=O)CC(=O)NCCCC[C@@H](C(=O)N[C@@H](Cc2cnc[nH]2)C(N)=O)NC(=O)[C@H](CCCNC(=N)N)NC(=O)[C@H](Cc2cccc3ccccc23)NC(=O)[C@H]([C@@H](C)O)NC(=O)[C@H](CCC(N)=O)NC(=O)[C@H](CCCNC(=N)N)NC1=O (Ac-DTC(Acm)RQT[1Nal]RKH-NH2; lactam 1-9),–,–,Stable
COc1cc(/C=C/C(=O)CC(=O)/C=C/c2ccc(O)c(OC)c2)ccc1O [CURCUMIN],~90,–,–
